This assay concerns the target T1, Acid ceramidase (Homo sapiens, UniProt Q13510).
T1 sequence (Q13510 whole entry): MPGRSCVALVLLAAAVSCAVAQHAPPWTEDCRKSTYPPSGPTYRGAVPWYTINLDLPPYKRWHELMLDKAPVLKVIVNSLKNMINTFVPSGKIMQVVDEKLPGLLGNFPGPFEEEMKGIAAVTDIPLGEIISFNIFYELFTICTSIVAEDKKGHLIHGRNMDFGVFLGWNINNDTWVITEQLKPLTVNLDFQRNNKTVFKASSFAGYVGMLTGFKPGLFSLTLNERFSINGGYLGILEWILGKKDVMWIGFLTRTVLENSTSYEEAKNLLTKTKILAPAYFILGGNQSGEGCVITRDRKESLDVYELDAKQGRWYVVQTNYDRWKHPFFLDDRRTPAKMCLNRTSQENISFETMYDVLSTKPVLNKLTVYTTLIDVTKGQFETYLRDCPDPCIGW
In words: Non-competitive inhibition of human acid ceramidase.

The structures appear in SMILES notation. pKi: −log10 of the molar value.

The term pKi denotes the negative decadic logarithm of the Ki, by convention in mol/L. High values mean a low Ki, low ones a high Ki. In turn, `O=C(NCCCCc1ccccc1)n1c(=O)oc2ccccc21` showed a pKi of 7.19.

These data come from ChEMBL document CHEMBL4371042, “Molecular Mechanism of Inhibition of Acid Ceramidase by Carmofur” (J Med Chem, 2019).
